Results: patent US11890286B2, “Methods and compositions for treating cancer” (THE UNIVERSITY OF CHICAGO, priority 2018, dated 2024)

Legend:
BM1 cells [1] = test: 3D proliferation of BM1 cells (total cell number in the invasion assay); format: cell-based, human; details: BM1, 10 μM and above
Description: (§1) The chemotaxis module in IncuCyte® can accurately count the number of cell in the top chamber and the bottom chamber of the ClearView plates separately. Invasive capability of the cells in the presence of various small molecule inhibitors was measured as the percentage of cells that moved to the bottom chamber over the period of 72 hours. The formula used for this calculation is (number of cells in the bottom chamber)/(number of cells in the bottom chamber+number of cells in the top chamber)×100. The total number of cells in the top and bottom chambers is used as a readout of proliferation, which was important for determining drug combinations that blocked invasion without affecting growth properties of the cells.
3D Cultures: For 3D proliferation experiments, we used Cultrex® 3D Basement Membrane Matrix, Reduced Growth Factor (Trevigen, Cat. No. 3445-005-01, Lot No 37353J16, Lot concentration: 15.51 mg/ml, referred to as BME). For all experiments, the cells in growth media were mixed with BME at a final concentration of 2 mg/ml. For 3D proliferation assays, 100 μl of the cell/BME mixture was dispensed into each well of a 96-well plate. Upon solidification of BME, 100 μl of growth media was added on top of the solidified gel. […] The growth of the cells was monitored in IncuCyte® Zoom or S3 models for the indicated duration of time.

[2] = system: BM1 cells (BM1-NucLight Red); test: High-throughput chemotactic invasion assay of nuclear-labeled BM1 cells; format: cell-based, human; details: 72 hours, single drug
Description: High-throughput chemotactic invasion assays: For testing anti-invasive drug combinations, IncuCyte® ClearView 96-Well Chemotaxis plates (Essen BioScience) were used. 2000 cells per well were embedded in 2 mg/ml BME and plated onto the chemotaxis plate following the manufacturer's instructions. Media containing 2% FBS was used in both top and bottom chambers to maintain cell viability over 72 hours or more. 200 ng/ml human EGF (Bio-Techne, 236-EG-01M) was used as the chemotactic agent in the bottom chamber, and the control wells only had the vehicle for the chemotactic agent.
This assay is more accurate when nuclear-labeled cells are used. Therefore, BM1-mKate2 (nuclear red) cells were generated using IncuCyte® NucLight Red Lentivirus Reagent (Essen BioScience, Cat. No. 4478) following the manufacturer's instructions. After transduction, cells with the highest nuclear red signal intensity (top 25%) were sorted by FACS.
as §1

JNK = test: Signaling study in vitro, immunoblot of JNK phosphorylation in TNBC cell lines; format: cell-based, human and mouse
Description: (§2) Signaling studies in vitro: In order to investigate the changes in stress kinase signaling upon stress in the presence of RKIP, or small molecule inhibitors of the MAPKs, cells were plated at sub-confluence. Once they reached roughly 70% confluence, they were starved overnight (16-24 hours) in serum-free media, and then induced with either anisomycin (Sigma-Aldrich, Cat. No. A9789) at 25 ng/ml or 100 ng/ml final concentration, or by 10% serum for 30 minutes to activate MAPK pathways. In studies with small molecule inhibitors of the MAPK pathway, all inhibitors were re-suspended in DMSO and used at indicated concentrations. The cells were pre-treated with the inhibitors in serum-free media for 30 minutes after overnight starvation, immediately before induction with anisomycin or serum for 30 minutes. In this case, the inducing agent was directly added to the pre-treatment media that already had the inhibitors, or the pre-treatment media was replaced by fresh media containing the inducer and the inhibitors. […]
(§3) Protein isolation and western blots: Cultured cells were washed with cold PBS and lysed in RIPA buffer with protease inhibitors (Millipore Sigma, Cat. No. 539134) and phosphatase inhibitors (GoldBio, Cat. No. GB-450). […] Supernatant was collected and the protein concentration measured using the Bradford assay. […]

orthotopic LMB tumors = test: Primary orthotopic LMB tumor growth in syngeneic mice; format: in vivo, mouse; details: single inhibitor; for primary LMB tumor growth determined by final tumor weight: syngeneic model, 10 mg/kg/day or lower
Description: For primary tumor growth experiments, 2×10^6 BM1 cells, 5×10^5 LMB cells, or 1×10^6 […] cells were injected orthotopically near the mammary fat pad of athymic nude, C57B1/6, or C3-1-TAg-REAR mice, respectively. Tumor growth was monitored over time by caliper measurements of the width and length of tumors. Tumor volumes were calculated with the formula: For the in vivo studies involving MAPK inhibitors and the 4-drug MAPKi combination treatment, small molecule inhibitors were resuspended under sterile conditions. […] No. 91893)+50% saline. JNK inhibitor SP600125 and MEK inhibitor Trametinib were diluted in corn oil (Sigma, Cat. No. C8267). For the 4-drug combinatorial treatment, all inhibitors were dissolved in their own solvent at 4×higher concentration then the desired final concentration. Then, SB203580 and URMC-099 were mixed at a 1:1 ratio, reducing the concentration for each drug down to 2×. Similarly, SP600125 and Trametinib were mixed at a 1:1 ratio. These dual combination solutions were then filtered through 0.22 μm PES filter syringes to assure sterility. Each mouse received 50 μl of each dual combination on the same day, resulting in a total of 100 μl of drug mix (2 injections per mouse) with each drug at their desired 1×final concentration. […] All injections were intraperitoneal. For the tumor growth experiments with the MAPK inhibitors, tumors were allowed to reach the size 50-100 mm^3 size before the MAPKi treatment began. Then, the mice were treated with the respective MAPKi treatment (or the control) for up to 3 weeks. Tumor size was monitored twice a week with a caliper. For the metastasis assays, the tumor cells were treated with the 4-drug MAPKi combination at the in vitro doses for 24 hours prior to injections to allow for anti-metastatic reprogramming of the cells. Homing to metastatic tissues upon intracardiac or tail vein injections can take up to 48 hours. […] After the inoculation, the mice were treated with the inhibitors daily for up to 3 weeks until the experimental endpoints discussed above were reached.

p38 = test: Signaling study in vitro, immunoblot of p38 phosphorylation in TNBC cell lines; format: cell-based, human and mouse; details: anisomycin-induced human cell lines (BM1, MB436)
Description: as §2, §3

BM1 cells [3] = test: Chemotactic invasion assay, BM1 cells; format: cell-based, human; details: increasing doses, single drug
Description: (§4) Boyden Chamber Invasion Assay: Each Boyden chamber membrane (Fisher Scientific, Cat. No. 353097) was coated with a thin layer of BME (200 μl of 0.25 mg/ml stock, or total of 50 μg of BME per membrane) and incubated at 37° C. for 1 hour. Cells were trypsinized and centrifuged at 500×g for 5 minutes followed by two rounds of PBS washes to remove remaining serum-containing media. Then, the cells were resuspended in serum-free media and diluted to the desired concentration for plating onto the Boyden chambers. Each Boyden chamber received 20,000-100,000 cells in 300 μl serum-free media, depending on the cell line. 10% serum was used as the chemoattractant for these assays. For the experiments testing the effect of MAPK inhibitors on invasion, the cells were resuspended in drug-containing serum-free media immediately. After 16-24 hours, the membranes were stained with Calcein AM (Fisher Scientific, Cat. No. 354217) for 1 hour at 37° C. in the dark to stain for live cells. Cells that are in the top chamber were removed from the membrane with a wet cotton swab. Cells in the bottom chamber were dissociated from the membrane by incubating in cell dissociation buffer (Trevigen, Cultrex®, Cat. No. 3455-096-05) in a shaker at 37° C. for 1 hour. Calcein AM signal was measured in Perkin Elmer Victor X3 plate reader as a read-out of invaded cells.

MB436 cells = test: Chemotactic invasion assay, MB436 cells; format: cell-based, human; details: increasing doses, single drug
Description: as §4

In the case of `O=C(O)c1ccc2c(c1)nc(Nc1cccc(Cl)c1)c1ccncc12` [CX-4945], the “effect on growth at the doses that blocked invasion” value (BM1 cells [1]) is reported as “growth-inhibitory”.
`C[S+]([O-])c1ccc(-c2nc(-c3ccc(F)cc3)c(-c3ccncc3)[nH]2)cc1` (stereo not shown) [SB203580, 4-(4-Fluorophenyl)-2-(4-methylsulfinylphenyl)-5-(4-pyridyl)-1H-imidazole] was tested, and the “minimal dose at which the proliferation rates were unaffected while the invasive capabilities of the cells were at least partially blocked” value (“minimal dose” for short) [2] was 1 µM, the “JNK activation upon p38 inhibition (crosstalk)” value (JNK; serum-induced, all four human and mouse TNBC cell lines) was “resulted in JNK activation” and the “primary LMB tumor growth determined by final tumor weight” value (orthotopic LMB tumors) was “do not affect primary LMB tumor growth”.
In the case of `Oc1c2ccccc2c2c3c(cccc13)N=N2` [SP600125, 1,9-Pyrazoloanthrone], the “minimal dose” value [2] is reported as 1 µM.
For `CC(=O)Nc1cccc(-n2c(=O)n(C3CC3)c(=O)c3c(Nc4ccc(I)cc4F)n(C)c(=O)c(C)c32)c1` [Trametinib], the “minimal dose” value [2] was 0.001 to 0.01 µM and the “primary LMB tumor growth” value (orthotopic LMB tumors; doses below 1 mg/kg) was “no significant effect”.
With `CN1CCN(Cc2ccc(-c3cnc4[nH]cc(-c5ccc6[nH]ccc6c5)c4c3)cc2)CC1` [URMC-099, 3-(1H-indol-5-yl)-5-[4-[(4-methyl-1-piperazinyl)methyl]phenyl]-1H-pyrrolo[2,3-b]pyridine] the “minimal dose” value [2] was 0.01 to 0.05 µM, the JNK activation (JNK; anisomycin-induced human cell lines (BM1, MB436)) was “decrease” and the p38 activation (p38) was “decrease”. The “invasion of BM1 cells” value (BM1 cells [3]) was “decreased invasion”, the “invasion of MB436 cells” value (MB436 cells) was “decreased invasion” and the “primary LMB tumor growth determined by final tumor weight” value (orthotopic LMB tumors) was “do not affect primary LMB tumor growth”.
